# Data from patent publication US20260070945A1, “MACROCYCLIC IMMUNOMODULATORS” (Bristol-Myers Squibb Company, priority 2022, published 2026).
# pIC50: −log10 of the molar value. *1 amine or outer side, *2 acyl side, *3 side chain or, on linkers, in order; H or OH if unused. Where a SMILES comes first, the peptide text is derived from it. Bridges are numbered along the chain shown (N, C = ends). [ ]: non-standard residue; d: D form. The star is where a group is joined. ξ: configuration not given here. Phe(3-CF3) = N[C@@H](Cc1cccc(C(F)(F)F)c1)C(=O)O; Phe(4-COOH) = N[C@@H](Cc1ccc(C(=O)O)cc1)C(=O)O; Bip = N[C@@H](Cc1ccc(-c2ccccc2)cc1)C(=O)O; Phe(3-Me) = Cc1cccc(C[C@H](N)C(=O)O)c1; γGlu = O=C(O)[C@H](CCC(=O)[*:2])N[*:1]; NH(CH2)12COOH = O=C(O)CCCCCCCCCCCCN*; Val(3-OH) = CC(C)(O)[C@H](N)C(=O)O; 4Pal = N[C@@H](Cc1ccncc1)C(=O)O; Cha = N[C@@H](CC1CCCCC1)C(=O)O; Ile(3ξ) = CCC(C)[C@H](N)C(=O)O; Thr(3ξ) = CC(O)[C@H](N)C(=O)O; Carboxymethyl = O=C(O)C*; NMeA = CN[C@@H](C)C(=O)O; Orn = NCCC[C@H](N)C(=O)O; dDap = NC[C@@H](N)C(=O)O; Aun = NCCCCCCCCCCC(=O)O; Dab = NCC[C@H](N)C(=O)O; Dap = NC[C@H](N)C(=O)O; AEEA = NCCOCCOCC(=O)O
# Biological target: T1, PD-1/PD-L1 interaction (PE-labeled human PD-L1-Ig binding to Jurkat cell line over-expressing human PD-1) (Homo sapiens, UniProt Q15116)
# T1 construct: expressed in transfected cells; host or cells: Jurkat
# Test: Jurkat-PD-1 Cell Binding High-Content Screening Assay (CBA)
# Settings: Jurkat-hPD-1 cells, PE-labeled PD-L1-Ig 20 nM final; read-out: Jurkat HPD1 PDL1 IC50
# Procedure, shortened: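 Compound is added first to the PD-1-expressing Jurkat cells and held 2 h at 37 °C in serum-containing DMEM. The fluorescent PD-L1 fusion follows at 20 nM final for 1 h. Fixed, Hoechst-stained cells are then imaged for bound label.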
# T1 sequence (Q15116 25-288): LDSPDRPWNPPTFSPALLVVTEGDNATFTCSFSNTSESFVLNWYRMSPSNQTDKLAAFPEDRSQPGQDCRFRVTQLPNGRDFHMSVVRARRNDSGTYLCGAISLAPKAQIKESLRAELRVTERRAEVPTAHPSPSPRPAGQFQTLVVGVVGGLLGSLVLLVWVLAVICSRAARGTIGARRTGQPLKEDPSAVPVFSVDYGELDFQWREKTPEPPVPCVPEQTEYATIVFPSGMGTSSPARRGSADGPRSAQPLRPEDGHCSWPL
row,SMILES,pIC50
1,Cc1cccc(C[C@@H]2NC(=O)[C@H](CC(=O)O)NC(=O)[C@H](Cc3ccc(OCC(=O)O)cc3)NC(=O)[C@H](C(C)O)NC(=O)CSC[C@@H](C(=O)N[C@@H](CCN)C(=O)NCCCCCCCCCCC(=O)O)NC(=O)[C@H](C(C)O)NC(=O)[C@H](C(C)C)NC(=O)[C@H](CC3CCCCC3)NC(=O)[C@H](CCN)NC(=O)[C@@H](CC(C)C)NC(=O)[C@H](C)N(C)C(=O)[C@H](Cc3ccc(OCC(=O)O)cc3)NC(=O)[C@H](Cc3ccc(-c4ccccc4)cc3)NC(=O)[C@H](Cc3ccc(OCC(=O)O)cc3)NC2=O)c1 (stereo partly drawn) [Example 2310] ({CH2CO}-[Thr(3ξ)]Y(Carboxymethyl)D[Phe(3-Me)]Y(Carboxymethyl)[Bip]Y(Carboxymethyl)[NMeA][dL][Dab][Cha]V[Thr(3ξ)]C[Dab][Aun]-OH; thioether N-14),7.92
2,CC(C)C[C@@H]1NC(=O)[C@H](Cc2c[nH]c3ccccc23)NC(=O)[C@H](CC(=O)O)NC(=O)[C@H](Cc2ccc(C(=O)O)cc2)NC(=O)[C@H](Cc2ccc(OCC(=O)O)cc2)NC(=O)CSC[C@@H](C(=O)N[C@@H](CCCCN)C(=O)NCCOCCOCC(=O)NCCCCCCCCCCC(=O)O)NC(=O)[C@@H](CO)NC(=O)[C@H](C(C)C)NC(=O)[C@H](CC2CCCCC2)NC(=O)[C@H](CCN)NC(=O)[C@@H](CC(C)C)NC(=O)[C@H](C)N(C)C(=O)[C@H](C(C)C)NC(=O)[C@H](Cc2ccc(-c3ccccc3)cc2)NC1=O [Example 1246] ({CH2CO}-Y(Carboxymethyl)[Phe(4-COOH)]DWL[Bip]V[NMeA][dL][Dab][Cha]V[dS]CK[AEEA][Aun]-OH; thioether N-14),7.50
3,CC(=O)NCCCC[C@@H]1NC(=O)[C@H](C(C)C)NC(=O)[C@H](CC2CCCCC2)NC(=O)[C@H](CCN)NC(=O)[C@@H](CC(C)C)NC(=O)[C@H](C)N(C)C(=O)[C@H](CCC(N)=O)NC(=O)[C@H](Cc2ccc(-c3ccccc3)cc2)NC(=O)[C@H](C(C)C)NC(=O)[C@H](Cc2cccc(C)c2)NC(=O)[C@H](CC(=O)O)NC(=O)[C@H](Cc2ccc(OCC(=O)O)cc2)NC(=O)[C@H](Cc2ccc(OCC(=O)O)cc2)NC(=O)CSC[C@@H](C(=O)N[C@@H](CCN)C(=O)NCCCCCCCCCCC(=O)O)NC1=O [Example 2220] ({CH2CO}-Y(Carboxymethyl)Y(Carboxymethyl)D[Phe(3-Me)]V[Bip]Q[NMeA][dL][Dab][Cha]VK(Ac)C[Dab][Aun]-OH; thioether N-14),8.00
4,COC[C@@H]1NC(=O)CSC[C@@H](C(=O)N[C@@H](CCN)C(=O)NCCOCCOCC(=O)N[C@@H](CCC(=O)NCCOCCOCC(=O)NCCCCCCCCCCCCC(=O)O)C(=O)O)NC(=O)[C@H](CO)NC(=O)[C@H](C(C)(C)O)NC(=O)[C@H](CC2CCCCC2)NC(=O)[C@H](CCN)NC(=O)[C@@H](CC(C)C)NC(=O)[C@H](C)N(C)C(=O)[C@H](CCC(N)=O)NC(=O)[C@H](Cc2ccc(-c3ccccc3)cc2)NC(=O)[C@H](Cc2ccc(C(=O)O)cc2)NC(=O)[C@H](Cc2cccc(C(F)(F)F)c2)NC(=O)[C@H](CC(=O)O)NC(=O)[C@H](Cc2ccc(OCC(=O)O)cc2)NC1=O [Example 1164] ({CH2CO}-S(Me)Y(Carboxymethyl)D[Phe(3-CF3)][Phe(4-COOH)][Bip]Q[NMeA][dL][Dab][Cha][Val(3-OH)]SC[Dab][AEEA][γGlu][AEEA]-{NH(CH2)12COOH}; thioether N-14),8.05
5,COC[C@@H]1NC(=O)CSC[C@@H](C(=O)N[C@@H](CCN)C(=O)NCCCCCCCCCCCCC(=O)O)NC(=O)[C@H](CCC(=O)O)NC(=O)[C@H](C(C)C)NC(=O)[C@H](CC2CCCCC2)NC(=O)[C@H](CCN)NC(=O)[C@@H](CC(C)C)NC(=O)[C@H](C)N(C)C(=O)[C@H](CCC(N)=O)NC(=O)[C@H](Cc2ccc(-c3ccccc3)cc2)NC(=O)[C@H](Cc2ccc(C(=O)O)cc2)NC(=O)[C@H](Cc2cccc(C(F)(F)F)c2)NC(=O)[C@H](CC(=O)O)NC(=O)[C@H](Cc2ccc(OCC(=O)O)cc2)NC1=O [Example 1135] ({CH2CO}-S(Me)Y(Carboxymethyl)D[Phe(3-CF3)][Phe(4-COOH)][Bip]Q[NMeA][dL][Dab][Cha]VEC[Dab]-{NH(CH2)12COOH}; thioether N-14),7.90
6,CCC(C)[C@@H]1NC(=O)[C@H](Cc2ccc(-c3ccccc3)cc2)NC(=O)[C@H](C(C)C)NC(=O)[C@H](Cc2c[nH]c3ccccc23)NC(=O)[C@H](CC(=O)O)NC(=O)[C@H](Cc2ccc(OCC(=O)O)cc2)NC(=O)[C@H](Cc2ccncc2)NC(=O)CSC[C@@H](C(=O)N[C@H](CN)C(=O)NCCOCCOCC(=O)N[C@@H](CCC(=O)NCCCCCCCCCCC(=O)O)C(=O)O)NC(=O)[C@H](CO)NC(=O)[C@H](C(C)C)NC(=O)[C@H](CC2CCCCC2)NC(=O)[C@H](CC(N)=O)NC(=O)[C@@H](CC(C)C)NC(=O)[C@H](C)N(C)C1=O (stereo partly drawn) [Example 2067] ({CH2CO}-[4Pal]Y(Carboxymethyl)DWV[Bip][Ile(3ξ)][NMeA][dL]N[Cha]VSC[dDap][AEEA][γGlu][Aun]-OH; thioether N-14),7.45
7,CCC(C)[C@@H]1NC(=O)[C@H](Cc2ccc(-c3ccccc3)cc2)NC(=O)[C@H](CC(C)C)NC(=O)[C@H](Cc2c[nH]c3ccccc23)NC(=O)[C@H](CC(=O)O)NC(=O)[C@H](Cc2ccc(C(=O)O)cc2)NC(=O)[C@H](Cc2ccc(OCC(=O)O)cc2)NC(=O)CSC[C@@H](C(=O)NCCCCCCCCCCC(=O)O)NC(=O)[C@H](CCCNC(=N)N)NC(=O)[C@H](C(C)C)NC(=O)[C@H](CC2CCCCC2)NC(=O)[C@H](CCN)NC(=O)[C@@H](CC(C)C)NC(=O)[C@H](C)N(C)C1=O (stereo partly drawn) [Example 2237] ({CH2CO}-Y(Carboxymethyl)[Phe(4-COOH)]DWL[Bip][Ile(3ξ)][NMeA][dL][Dab][Cha]VRC[Aun]-OH; thioether N-14),7.82
8,COc1ccc(C[C@@H]2NC(=O)[C@H](Cc3cccc(C)c3)NC(=O)[C@H](CC(=O)O)NC(=O)[C@H](Cc3ccc(C(=O)O)cc3)NC(=O)[C@H](CCN)NC(=O)CSC[C@@H](C(=O)N[C@@H](CCN)C(=O)NCCCCCCCCCCC(=O)O)NC(=O)[C@H](CO)NC(=O)[C@H](C(C)(C)O)NC(=O)[C@H](CC3CCCCC3)NC(=O)[C@H](CCN)NC(=O)[C@@H](CC(C)C)NC(=O)[C@H](C)N(C)C(=O)[C@H](Cc3ccc(OCC(=O)O)cc3)NC(=O)[C@H](Cc3ccc(-c4ccccc4)cc3)NC2=O)cc1 [Example 1291] ({CH2CO}-[Dab][Phe(4-COOH)]D[Phe(3-Me)]Y(Me)[Bip]Y(Carboxymethyl)[NMeA][dL][Dab][Cha][Val(3-OH)]SC[Dab][Aun]-OH; thioether N-14),7.64

# The next lines start with the values.
row,pIC50,SMILES
1,7.68,Cc1cccc(C[C@@H]2NC(=O)[C@H](CC(=O)O)NC(=O)[C@H](Cc3ccc(OCC(=O)O)cc3)NC(=O)[C@H](C(C)O)NC(=O)CSC[C@@H](C(=O)N[C@@H](CCN)C(=O)NCCOCCOCC(=O)NCCOCCOCC(=O)NCCCCCCCCCCC(=O)O)NC(=O)[C@H](CCC(=O)O)NC(=O)[C@H](C(C)C)NC(=O)[C@H](CC3CCCCC3)NC(=O)[C@H](CCN)NC(=O)[C@@H](CC(C)C)NC(=O)[C@H](C)N(C)C(=O)[C@H](Cc3ccc(OCC(=O)O)cc3)NC(=O)[C@H](Cc3ccc(-c4ccccc4)cc3)NC(=O)[C@H](Cc3ccc(C(=O)O)cc3)NC2=O)c1 (stereo partly drawn) [Example 2482] ({CH2CO}-[Thr(3ξ)]Y(Carboxymethyl)D[Phe(3-Me)][Phe(4-COOH)][Bip]Y(Carboxymethyl)[NMeA][dL][Dab][Cha]VEC[Dab][AEEA][AEEA][Aun]-OH; thioether N-14)
2,7.95,CCC(C)[C@@H]1NC(=O)[C@H](Cc2ccc(-c3ccccc3)cc2)NC(=O)[C@H](CC(C)C)NC(=O)[C@H](Cc2c[nH]c3ccccc23)NC(=O)[C@H](CC(=O)O)NC(=O)[C@H](Cc2ccc(C(=O)O)cc2)NC(=O)[C@H](Cc2ccc(OCC(=O)O)cc2)NC(=O)CSC[C@@H](C(=O)N[C@@H](CC(N)=O)C(=O)NCCOCCOCC(=O)N[C@@H](CCN)C(=O)NCCCCCCCCCCC(=O)O)NC(=O)[C@H](CO)NC(=O)[C@H](C(C)C)NC(=O)[C@H](CC2CCCCC2)NC(=O)[C@H](CCN)NC(=O)[C@@H](CC(C)C)NC(=O)[C@H](C)N(C)C1=O (stereo partly drawn) [Example 2079] ({CH2CO}-Y(Carboxymethyl)[Phe(4-COOH)]DWL[Bip][Ile(3ξ)][NMeA][dL][Dab][Cha]VSCN[AEEA][Dab][Aun]-OH; thioether N-14)
3,7.64,CC(C)C[C@H]1NC(=O)[C@H](C)N(C)C(=O)[C@H](Cc2ccc(OCC(=O)O)cc2)NC(=O)[C@H](Cc2ccc(-c3ccccc3)cc2)NC(=O)[C@H](Cc2ccc(OCC(=O)O)cc2)NC(=O)[C@H](Cc2c[nH]c3ccccc23)NC(=O)[C@H](CC(=O)O)NC(=O)[C@H](Cc2ccncc2)NC(=O)[C@H](Cc2ccc(OCC(=O)O)cc2)NC(=O)CSC[C@@H](C(=O)N[C@@H](CCN)C(=O)NCCCCCCCCCCC(=O)O)NC(=O)[C@H](CCCn2cc(CN(C)C(=O)c3ccc(F)cc3)nn2)NC(=O)[C@H](C(C)C)NC(=O)[C@H](CC2CCCCC2)NC(=O)[C@H](CCN)NC1=O [Example 1110]
4,7.44,Cc1cccc(C[C@@H]2NC(=O)[C@H](CC(=O)O)NC(=O)[C@H](Cc3ccc(OCC(=O)O)cc3)NC(=O)[C@H](CN)NC(=O)CSC[C@@H](C(=O)NCCOCCOCC(=O)NCCCCCCCCCCC(=O)O)NC(=O)[C@H](CCCN)NC(=O)[C@H](C(C)C)NC(=O)[C@H](CC3CCCCC3)NC(=O)[C@H](CCN)NC(=O)[C@@H](CC(C)C)NC(=O)[C@H](C)N(C)C(=O)[C@H](Cc3ccc(O)cc3)NC(=O)[C@H](Cc3ccc(-c4ccccc4)cc3)NC(=O)[C@H](C(C)C)NC2=O)c1 [Example 1317] ({CH2CO}-[Dap]Y(Carboxymethyl)D[Phe(3-Me)]V[Bip]Y[NMeA][dL][Dab][Cha]V[Orn]C[AEEA][Aun]-OH; thioether N-14)
5,8.00,CC(C)C[C@@H]1NC(=O)[C@H](Cc2c[nH]c3ccccc23)NC(=O)[C@H](CC(=O)O)NC(=O)[C@H](Cc2ccc(C(=O)O)cc2)NC(=O)[C@H](Cc2ccc(OCC(=O)O)cc2)NC(=O)CSC[C@@H](C(=O)N[C@@H](CCN)C(=O)NCCCCCCCCCCC(=O)O)NC(=O)[C@H](CCC(N)=O)NC(=O)[C@H](C(C)C)NC(=O)[C@H](CC2CCCCC2)NC(=O)[C@H](CCN)NC(=O)[C@@H](CC(C)C)NC(=O)[C@H](C)N(C)C(=O)[C@H](C(C)C)NC(=O)[C@H](Cc2ccc(-c3ccccc3)cc2)NC1=O [Example 1337] ({CH2CO}-Y(Carboxymethyl)[Phe(4-COOH)]DWL[Bip]V[NMeA][dL][Dab][Cha]VQC[Dab][Aun]-OH; thioether N-14)
